The values below come from patent US20230114728A1 (Venatorx Pharmaceuticals, Inc., priority 2019, published 2023).

Molecules are shown by their SMILES. ≈ marks a conversion by molar mass, not a printed value. A value given as a limit tells only on which side of the number the result lay.

What all share (assay): Broth microdilution MIC in CAMHB
Common to all, as to format: cell-based
For orientation: Broth dilution looks for growth in wells or tubes with falling amounts of substance.

One test relates to A. baumannii ATCC 19606. The note with it: Acinetobacter baumannii, ATCC19606; MHB; read-out: Minimum Inhibitory Concentration, A. baumannii ATCC 19606. The method in brief: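 CLSI microdilution; CAMHB; inoculum 2-8×10^5 CFU/mL from 3-5 h 37° C culture; 2-fold compound series; 16-20 h, 37° C; MIC = lowest well without visible growth.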
The test system of test [1] is K. pneumoniae SI-117 producing VIM-1. The note with it: Klebsiella pneumoniae, read-out: Minimum Inhibitory Concentration, K. pneumoniae SI-117. A digest of the protocol: (§1)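 Colonies from cation-adjusted Mueller Hinton agar are grown in broth (3-5 h, 37° C), adjusted by OD600, and added at 2-8×10^5 CFU/mL to 2-fold compound dilutions. After 16-20 h at 37° C, the lowest concentration without growth is taken as MIC.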

A further test concerns E. coli AG100. The note with it: Escherichia coli; E. coli AG100 (wild-type parent); MHB; read-out: Minimum Inhibitory Concentration, E. coli AG100. A digest of the protocol: as §1
In another test the test system is E. coli AG100A. The conditions noted are these: Escherichia coli, read-out: Minimum Inhibitory Concentration, E. coli AG100A. A digest of the protocol:
as §1

Test [2] relates to K. pneumoniae UMM producing SHV-5 and KPC-2. The note with it: Klebsiella pneumoniae, read-out: Minimum Inhibitory Concentration, K. pneumoniae UMM. The method in brief: as §1
For test [3], the system named is P. aeruginosa (ΔmexAB-oprM). The conditions noted are these: Pseudomonas aeruginosa, read-out: Minimum Inhibitory Concentration, P. aeruginosa ΔmexAB-OprM. A digest of the protocol:
as §1

Another test relates to E. coli 901C. The conditions noted are these: Escherichia coli; E. coli 901C (hyper-permeable); MHB; read-out: Minimum Inhibitory Concentration, E. coli 901C. The method in brief: as §1
A further test has as its system P. aeruginosa ATCC 27853. The note with it: Pseudomonas aeruginosa, ATCC27853; MHB; read-out: Minimum Inhibitory Concentration, P. aeruginosa ATCC 27853. The method in brief: as §1
For another test, the system named is P. aeruginosa ATCC 35151. The note with it: Pseudomonas aeruginosa, ATCC35151; MHB; hyper-permeable strain; read-out: Minimum Inhibitory Concentration, P. aeruginosa ATCC 35151. The method in brief:
as §1

The subject of another test is E. coli ATCC 25922. The conditions noted are these: Escherichia coli, ATCC25922; E. coli ATCC 25922; MHB; read-out: Minimum Inhibitory Concentration, E. coli 25922. A digest of the protocol:
as §1

In a further test the test system is E. coli D22. The conditions noted are these: Escherichia coli; E. coli D22 (hyper-permeable); MHB; read-out: Minimum Inhibitory Concentration, E. coli D22. A digest of the protocol: as §1
In test [4] the test system is K. pneumoniae 848844 producing SHV-11 and KPC-2. The conditions noted are these: Klebsiella pneumoniae, read-out: Minimum Inhibitory Concentration, K. pneumoniae 848844. The method in brief: as §1

Regarding `CCN1CCN(C(=O)N[C@H](C(=O)N[C@H]2Cc3ccc(F)c(C(=O)O)c3OB2O)c2c(F)cc(O)c(O)c2Cl)C(=O)C1=O` (single isomer, unassigned) [Example 125], the MIC was greater than 128 µg/mL in the test on A. baumannii ATCC 19606; 32 to 64 µg/mL (≈ 52.4 to 105 µM) in test [1]; 32 to 64 µg/mL (≈ 52.4 to 105 µM) with E. coli AG100; 2 to 4 µg/mL (≈ 3.27 to 6.55 µM) in the test with E. coli AG100A; 32 to 64 µg/mL (≈ 52.4 to 105 µM) in test [2]; 32 to 64 µg/mL (≈ 52.4 to 105 µM) in test [3]. For the same compound, the MIC was less than 0.25 µg/mL in the test on E. coli 901C; greater than 128 µg/mL in the test with P. aeruginosa ATCC 27853; 2 to 4 µg/mL (≈ 3.27 to 6.55 µM) in the test with P. aeruginosa ATCC 35151; 32 to 64 µg/mL (≈ 52.4 to 105 µM) in the test on E. coli ATCC 25922; 2 to 4 µg/mL (≈ 3.27 to 6.55 µM) in the test on E. coli D22; 32 to 64 µg/mL (≈ 52.4 to 105 µM) in test [4].

Take `NCCN1CCN(C(=O)N[C@@H](C(=O)N[C@H]2Cc3ccc(F)c(C(=O)O)c3OB2O)c2c(F)cc(O)cc2F)C(=O)C1=O` (single isomer, unassigned) [Example 127]: the MIC in the test with A. baumannii ATCC 19606 was greater than 128 µg/mL; in test [1] it was 32 to 64 µg/mL (≈ 53.9 to 108 µM); in the test on E. coli AG100, 8 to 16 µg/mL (≈ 13.5 to 27 µM); in the test with E. coli AG100A, 8 to 16 µg/mL (≈ 13.5 to 27 µM); in test [2] it was 8 to 16 µg/mL (≈ 13.5 to 27 µM); in [3] it was 8 to 16 µg/mL (≈ 13.5 to 27 µM). Further, the MIC with E. coli 901C was 2 to 4 µg/mL (≈ 3.37 to 6.74 µM); in the test on P. aeruginosa ATCC 27853, greater than 128 µg/mL; in the test on P. aeruginosa ATCC 35151 it was 0.5 to 1 µg/mL (≈ 0.843 to 1.69 µM); in the test on E. coli ATCC 25922 it was 8 to 16 µg/mL (≈ 13.5 to 27 µM); with E. coli D22, 2 to 4 µg/mL (≈ 3.37 to 6.74 µM); in [4], 32 to 64 µg/mL (≈ 53.9 to 108 µM).

Take `NCCN1CCN(C(=O)N[C@H](C(=O)N[C@H]2Cc3ccc(F)c(C(=O)O)c3OB2O)c2c(F)cc(O)cc2F)C(=O)C1=O` (single isomer, unassigned) [Example 128]: the MIC in the test with A. baumannii ATCC 19606 is greater than 128 µg/mL; in test [1], greater than 128 µg/mL; in the test on E. coli AG100 it was 32 to 64 µg/mL (≈ 53.9 to 108 µM); in the test with E. coli AG100A, 32 to 64 µg/mL (≈ 53.9 to 108 µM); in [2], 32 to 64 µg/mL (≈ 53.9 to 108 µM); in test [3], 32 to 64 µg/mL (≈ 53.9 to 108 µM). For the same compound, the MIC in the test with E. coli 901C was 8 to 16 µg/mL (≈ 13.5 to 27 µM); with P. aeruginosa ATCC 27853, greater than 128 µg/mL; in the test with P. aeruginosa ATCC 35151 it was 2 to 4 µg/mL (≈ 3.37 to 6.74 µM); in the test with E. coli ATCC 25922, 32 to 64 µg/mL (≈ 53.9 to 108 µM); in the test with E. coli D22, 8 to 16 µg/mL (≈ 13.5 to 27 µM); in [4], greater than 128 µg/mL.

As to `CS(=O)(=O)N1CCN(C(=O)N[C@@H](C(=O)N[C@H]2Cc3cccc(C(=O)O)c3OB2O)c2c(F)cc(O)cc2F)C1=O` (single isomer, unassigned) [Example 135], the MIC in the test on A. baumannii ATCC 19606 is greater than 128 µg/mL; in [1] it was 32 to 64 µg/mL (≈ 55 to 110 µM); with E. coli AG100, 32 to 64 µg/mL (≈ 55 to 110 µM); with E. coli AG100A it was 0.5 to 1 µg/mL (≈ 0.859 to 1.72 µM); in test [2], 32 to 64 µg/mL (≈ 55 to 110 µM); in [3], 32 to 64 µg/mL (≈ 55 to 110 µM). Moreover, the MIC in the test on E. coli 901C is less than 0.25 µg/mL; in the test on P. aeruginosa ATCC 27853, greater than 128 µg/mL; with P. aeruginosa ATCC 35151 it was 2 to 4 µg/mL (≈ 3.43 to 6.87 µM); in the test with E. coli ATCC 25922 it was 8 to 16 µg/mL (≈ 13.7 to 27.5 µM); in the test with E. coli D22 it was 2 to 4 µg/mL (≈ 3.43 to 6.87 µM); in test [4] it was 32 to 64 µg/mL (≈ 55 to 110 µM).

`CS(=O)(=O)N1CCN(C(=O)N[C@H](C(=O)N[C@H]2Cc3cccc(C(=O)O)c3OB2O)c2c(F)cc(O)cc2F)C1=O` (single isomer, unassigned) [Example 136]: the MIC was greater than 128 µg/mL in the test with A. baumannii ATCC 19606; greater than 128 µg/mL in test [1]; greater than 128 µg/mL in the test with E. coli AG100; 8 to 16 µg/mL (≈ 13.7 to 27.5 µM) with E. coli AG100A; greater than 128 µg/mL in test [2]; greater than 128 µg/mL in test [3]. Moreover, the MIC was 0.5 to 1 µg/mL (≈ 0.859 to 1.72 µM) in the test with E. coli 901C; greater than 128 µg/mL with P. aeruginosa ATCC 27853; 2 to 4 µg/mL (≈ 3.43 to 6.87 µM) in the test on P. aeruginosa ATCC 35151; greater than 128 µg/mL in the test with E. coli ATCC 25922; 8 to 16 µg/mL (≈ 13.7 to 27.5 µM) in the test on E. coli D22; greater than 128 µg/mL in test [4].

For `CCN1CCN(C(=O)N[C@H](C(=O)N[C@H]2Cc3cccc(C(=O)O)c3OB2O)c2ccc(C(=O)O)c(F)c2F)C(=O)C1=O` (single isomer, unassigned) [Example 139], the MIC in the test with A. baumannii ATCC 19606 is greater than 128 µg/mL; in test [1], greater than 128 µg/mL; with E. coli AG100, 32 to 64 µg/mL (≈ 54.4 to 109 µM); in the test with E. coli AG100A, 8 to 16 µg/mL (≈ 13.6 to 27.2 µM); in test [2], 32 to 64 µg/mL (≈ 54.4 to 109 µM); in [3], 8 to 16 µg/mL (≈ 13.6 to 27.2 µM). Besides, the MIC in the test with E. coli 901C is less than 0.25 µg/mL; in the test with P. aeruginosa ATCC 27853 it was greater than 128 µg/mL; with P. aeruginosa ATCC 35151, 0.5 to 1 µg/mL (≈ 0.85 to 1.7 µM); in the test with E. coli ATCC 25922 it was greater than 128 µg/mL; in the test on E. coli D22, 2 to 4 µg/mL (≈ 3.4 to 6.8 µM); in test [4], greater than 128 µg/mL.
